# Values joined by “and” are separate entries in the source; they are usually repeats but may differ in a detail not shown here. Identical values can stand only once.
# Experiments:
# [1] = biological target: T1, homomeric GluA1 AMPA receptor (Rattus norvegicus, UniProt P19490); assay: Whole-cell patch clamp of recombinant GluA1 receptors in HEK293-T/17 cells; format: cell-based; conditions: 30 μM; 10 mM glutamate
# T1 construct: expressed in transfected cells; host or cells: HEK293-T/17 (CRL-11268)
# T1 sequence (P19490 19-907 isoform P19490-2 limits assumed): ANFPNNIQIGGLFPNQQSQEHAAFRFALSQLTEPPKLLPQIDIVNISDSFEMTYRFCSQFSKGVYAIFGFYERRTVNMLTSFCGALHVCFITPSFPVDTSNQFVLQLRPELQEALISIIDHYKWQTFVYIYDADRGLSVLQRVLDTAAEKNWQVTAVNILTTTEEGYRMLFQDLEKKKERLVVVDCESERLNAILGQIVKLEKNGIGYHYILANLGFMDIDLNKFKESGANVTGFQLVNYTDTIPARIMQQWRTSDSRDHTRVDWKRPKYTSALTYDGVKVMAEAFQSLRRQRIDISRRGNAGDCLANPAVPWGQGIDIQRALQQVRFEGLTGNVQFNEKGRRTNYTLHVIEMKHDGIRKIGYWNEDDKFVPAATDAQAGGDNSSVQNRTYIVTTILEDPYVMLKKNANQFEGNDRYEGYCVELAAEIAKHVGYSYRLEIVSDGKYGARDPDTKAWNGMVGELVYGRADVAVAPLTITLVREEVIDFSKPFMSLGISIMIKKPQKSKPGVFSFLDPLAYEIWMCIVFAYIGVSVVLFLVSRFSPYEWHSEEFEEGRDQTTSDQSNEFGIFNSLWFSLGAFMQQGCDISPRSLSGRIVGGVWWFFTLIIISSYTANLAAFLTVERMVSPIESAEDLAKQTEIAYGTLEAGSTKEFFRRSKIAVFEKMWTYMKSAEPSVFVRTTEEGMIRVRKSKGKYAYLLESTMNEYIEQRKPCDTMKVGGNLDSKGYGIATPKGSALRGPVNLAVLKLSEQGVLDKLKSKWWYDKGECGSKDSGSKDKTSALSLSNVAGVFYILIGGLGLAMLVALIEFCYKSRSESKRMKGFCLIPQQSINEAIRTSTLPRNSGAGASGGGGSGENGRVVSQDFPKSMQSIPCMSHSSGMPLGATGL
# Description: (§1) Cell Culture and Transfection. Human embryonic kidney cells expressing T-antigen, clone 17 (HEK293-T/17) (CRL-11268) were cultured at 37° C. with 5% CO2 in DMEM, including 100 μg/mL penicillin, 100 μg/mL streptomycin, and 10% heat-inactivated fetal bovine serum. Cells were split twice per week. For transfection, HEK293-T/17 cells were plated at 3×10^4 cells/cm^2 for pharmacology experiments and 5×10^3 cells/cm^2 for physiology experiments in fresh medium 24 h prior to transfection. Cells were transfected with AMPA or KA receptor plasmid cDNAs using Mirus Trans-IT transfection reagent (Minus Bio Corporation, Madison, Wis.) at a ratio of 1 μg cDNA: 3 μL Trans-1T reagent and maintained in transfection medium overnight followed by a media change the next day. Transfected cells were maintained in this medium until the experiment was conducted (48-72 h total post transfection).
# (§2) Electrophysiology. For analysis of recombinant receptors, HEK293-T/17 cells were co-transfected with 0.2 μg of iGluR cDNA and 0.05 μg of eGFP. For heterologous GluA1/GluA2 receptors, the GluA1:GluA2 cDNA ratio was 1:6. Two to three days post-transfection, eGFP-expressing cells were lifted from the cover slip and voltage clamped in whole cell mode. […]
# [2] = biological target: T2, homomeric GluK2a kainate receptor (Rattus norvegicus, UniProt P42260); assay: Whole-cell patch clamp of recombinant GluK2a receptors in HEK293-T/17 cells; format: cell-based; conditions: 30 μM; 10 mM glutamate
# T2 construct: myc; expressed in transfected cells; host or cells: HEK293-T/17 (CRL-11268)
# T2 sequence (P42260 32-908): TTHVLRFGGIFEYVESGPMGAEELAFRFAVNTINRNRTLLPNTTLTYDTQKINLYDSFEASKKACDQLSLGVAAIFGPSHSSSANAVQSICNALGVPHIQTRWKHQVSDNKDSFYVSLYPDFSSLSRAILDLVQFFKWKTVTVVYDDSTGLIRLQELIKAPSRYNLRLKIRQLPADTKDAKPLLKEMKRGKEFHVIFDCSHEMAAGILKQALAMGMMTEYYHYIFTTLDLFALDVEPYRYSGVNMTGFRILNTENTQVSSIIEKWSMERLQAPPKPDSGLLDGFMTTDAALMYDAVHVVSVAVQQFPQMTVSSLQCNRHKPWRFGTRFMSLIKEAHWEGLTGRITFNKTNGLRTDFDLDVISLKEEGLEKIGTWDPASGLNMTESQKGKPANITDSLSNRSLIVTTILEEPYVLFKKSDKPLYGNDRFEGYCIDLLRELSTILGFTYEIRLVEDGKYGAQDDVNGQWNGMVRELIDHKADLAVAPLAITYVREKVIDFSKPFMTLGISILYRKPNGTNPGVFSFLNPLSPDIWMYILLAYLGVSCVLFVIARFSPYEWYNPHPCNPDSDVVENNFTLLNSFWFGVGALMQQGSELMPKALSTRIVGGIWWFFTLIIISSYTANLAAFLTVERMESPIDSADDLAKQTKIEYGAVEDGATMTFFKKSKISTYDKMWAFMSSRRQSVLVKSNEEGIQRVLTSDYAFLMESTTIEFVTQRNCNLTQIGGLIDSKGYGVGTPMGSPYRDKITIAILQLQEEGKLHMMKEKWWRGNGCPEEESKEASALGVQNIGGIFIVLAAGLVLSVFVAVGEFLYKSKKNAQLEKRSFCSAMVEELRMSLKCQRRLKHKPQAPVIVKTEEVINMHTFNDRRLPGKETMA
# Description: as §1, §2
# [3] = biological target: T3, homomeric GluK1-2b kainate receptor (Rattus norvegicus, UniProt P22756); assay: Whole-cell patch clamp of recombinant GluK1-2b receptors in HEK293-T/17 cells; format: cell-based; conditions: 30 μM; 10 mM glutamate
# T3 construct: myc; expressed in transfected cells; host or cells: HEK293-T/17 (CRL-11268)
# T3 sequence (P22756 31-905 isoform P22756-2 limits assumed): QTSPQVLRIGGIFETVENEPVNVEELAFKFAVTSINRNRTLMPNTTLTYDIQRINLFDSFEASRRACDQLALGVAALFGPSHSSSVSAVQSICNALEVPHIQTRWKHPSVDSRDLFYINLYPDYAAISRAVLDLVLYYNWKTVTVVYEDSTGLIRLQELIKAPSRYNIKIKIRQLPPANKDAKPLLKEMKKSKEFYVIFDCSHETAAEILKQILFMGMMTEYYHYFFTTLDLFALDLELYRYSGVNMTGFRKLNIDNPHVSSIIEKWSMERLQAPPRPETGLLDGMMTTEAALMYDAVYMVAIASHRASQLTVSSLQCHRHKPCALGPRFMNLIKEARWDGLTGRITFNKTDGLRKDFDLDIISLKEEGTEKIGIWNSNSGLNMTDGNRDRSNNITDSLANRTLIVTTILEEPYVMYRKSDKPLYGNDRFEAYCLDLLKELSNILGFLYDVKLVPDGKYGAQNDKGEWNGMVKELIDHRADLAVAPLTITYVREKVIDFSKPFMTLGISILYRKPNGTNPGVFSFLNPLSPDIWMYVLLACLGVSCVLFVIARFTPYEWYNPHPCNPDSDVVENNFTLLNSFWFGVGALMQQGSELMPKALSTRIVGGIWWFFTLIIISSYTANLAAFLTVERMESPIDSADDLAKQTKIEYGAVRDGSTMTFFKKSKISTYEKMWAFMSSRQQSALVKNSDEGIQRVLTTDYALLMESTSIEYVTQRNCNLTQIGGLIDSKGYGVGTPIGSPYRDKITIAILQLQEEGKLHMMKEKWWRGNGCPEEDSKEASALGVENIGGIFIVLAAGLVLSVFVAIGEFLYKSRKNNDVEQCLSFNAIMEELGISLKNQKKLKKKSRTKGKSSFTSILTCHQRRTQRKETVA
# Description: as §1, §2
# GluA2 = biological target: T4, GluA2 (Rattus norvegicus, UniProt P19491); assay: [3H]-AMPA radioligand binding, membranes of HEK293-T/17 cells expressing GluA2; conditions: 100 μM; 20 nM [3H]-AMPA; 1 h at 4° C.
# T4 construct: expressed in transfected cells; host or cells: HEK293-T/17 (CRL-11268), membranes
# T4 sequence (P19491 22-883 isoform P19491-2 limits assumed): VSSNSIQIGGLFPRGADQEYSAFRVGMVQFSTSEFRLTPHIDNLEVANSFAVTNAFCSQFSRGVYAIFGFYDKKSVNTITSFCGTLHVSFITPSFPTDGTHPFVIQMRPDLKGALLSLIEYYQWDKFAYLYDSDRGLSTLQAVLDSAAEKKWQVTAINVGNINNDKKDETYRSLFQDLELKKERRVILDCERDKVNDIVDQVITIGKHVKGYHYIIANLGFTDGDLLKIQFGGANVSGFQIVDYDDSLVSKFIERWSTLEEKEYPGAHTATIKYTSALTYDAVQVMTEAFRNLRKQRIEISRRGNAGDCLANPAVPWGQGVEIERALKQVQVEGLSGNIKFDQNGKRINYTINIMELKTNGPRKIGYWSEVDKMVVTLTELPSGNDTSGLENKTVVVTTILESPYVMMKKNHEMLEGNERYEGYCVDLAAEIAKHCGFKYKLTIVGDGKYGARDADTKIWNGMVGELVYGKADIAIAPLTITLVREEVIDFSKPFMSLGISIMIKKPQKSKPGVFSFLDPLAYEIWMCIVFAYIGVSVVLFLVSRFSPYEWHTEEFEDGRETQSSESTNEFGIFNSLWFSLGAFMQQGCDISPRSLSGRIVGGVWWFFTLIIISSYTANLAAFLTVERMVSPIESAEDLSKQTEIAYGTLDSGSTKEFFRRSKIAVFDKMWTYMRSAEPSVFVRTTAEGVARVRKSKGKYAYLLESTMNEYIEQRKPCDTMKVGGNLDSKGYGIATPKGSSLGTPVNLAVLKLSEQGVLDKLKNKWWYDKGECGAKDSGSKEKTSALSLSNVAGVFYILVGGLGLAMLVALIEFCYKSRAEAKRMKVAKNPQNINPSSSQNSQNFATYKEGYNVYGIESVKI
# Description: (§3) Radioligand binding. HEK293-T/17 cells were transfected with 5 μg of iGluR cDNA in 100 mm^2 culture dishes. Two days post transfection, the plates were washed twice with ice-cold Dulbecco's phosphate-buffered saline (DPBS) and then incubated with 50 mM Tris (pH 7.4) and 1 mM EDTA for three minutes on ice. Cells were collected and centrifuged for five minutes at 800 g at room temperature. The cell pellet was homogenized in 50 mM Tris (pH 7.4) containing 320 mM sucrose (homogenization buffer, HB) on ice using a glass dounce homogenizer and centrifuged at 4° C. for 10 minutes at 800 g. The supernatant, containing the membrane fragments, was saved and the remaining pellet containing nuclei and unbroken cells was resuspended in HB. This homogenization process was repeated two more times and after collection of the final resulting supernatant, the remaining pellet was discarded. The collected supernatants were centrifuged at 4° C. for 20 minutes at 20000 g and the resulting supernatant was discarded leaving a membrane-containing pellet. […] Non-specific binding was determined as the amount of radioligand bound in the presence of a saturating concentration of glutamate (1 mM). Total binding was determined as the amount of radioligand bound in the absence of any competing ligands minus the non-specific binding. […]
# GluA1 = biological target: T5, GluA1 (Rattus norvegicus, UniProt P19490); assay: [3H]-AMPA radioligand binding, membranes of HEK293-T/17 cells expressing GluA1; conditions: 100 μM; 20 nM [3H]-AMPA; 1 h at 4° C.
# T5 construct: expressed in transfected cells; host or cells: HEK293-T/17 (CRL-11268)
# T5 sequence (P19490 19-907 isoform P19490-2 limits assumed): as the sequence (P19490 19-907 isoform P19490-2 limits assumed) above
# Description: as §3
# GluK2a = biological target: T6, GluK2a (Rattus norvegicus, UniProt P42260); assay: [3H]-KA radioligand binding, membranes of HEK293-T/17 cells expressing GluK2a; conditions: 10 nM [3H]-KA, 1 h at 4° C., read-out: [3H]KA bound as percent of total (specific) binding in absence of competing ligand
# T6 construct: myc; expressed in transfected cells; host or cells: HEK293-T/17 (CRL-11268)
# T6 sequence (P42260 32-908): as the sequence (P42260 32-908) above
# Description: as §3
# GluA4 = biological target: T7, GluA4 (Rattus norvegicus, UniProt P19493); assay: [3H]-AMPA radioligand binding, membranes of HEK293-T/17 cells expressing GluA4; conditions: 100 μM
# T7 construct: expressed in transfected cells; host or cells: HEK293-T/17 (CRL-11268)
# T7 sequence (P19493 21-902 isoform P19493-2 limits assumed): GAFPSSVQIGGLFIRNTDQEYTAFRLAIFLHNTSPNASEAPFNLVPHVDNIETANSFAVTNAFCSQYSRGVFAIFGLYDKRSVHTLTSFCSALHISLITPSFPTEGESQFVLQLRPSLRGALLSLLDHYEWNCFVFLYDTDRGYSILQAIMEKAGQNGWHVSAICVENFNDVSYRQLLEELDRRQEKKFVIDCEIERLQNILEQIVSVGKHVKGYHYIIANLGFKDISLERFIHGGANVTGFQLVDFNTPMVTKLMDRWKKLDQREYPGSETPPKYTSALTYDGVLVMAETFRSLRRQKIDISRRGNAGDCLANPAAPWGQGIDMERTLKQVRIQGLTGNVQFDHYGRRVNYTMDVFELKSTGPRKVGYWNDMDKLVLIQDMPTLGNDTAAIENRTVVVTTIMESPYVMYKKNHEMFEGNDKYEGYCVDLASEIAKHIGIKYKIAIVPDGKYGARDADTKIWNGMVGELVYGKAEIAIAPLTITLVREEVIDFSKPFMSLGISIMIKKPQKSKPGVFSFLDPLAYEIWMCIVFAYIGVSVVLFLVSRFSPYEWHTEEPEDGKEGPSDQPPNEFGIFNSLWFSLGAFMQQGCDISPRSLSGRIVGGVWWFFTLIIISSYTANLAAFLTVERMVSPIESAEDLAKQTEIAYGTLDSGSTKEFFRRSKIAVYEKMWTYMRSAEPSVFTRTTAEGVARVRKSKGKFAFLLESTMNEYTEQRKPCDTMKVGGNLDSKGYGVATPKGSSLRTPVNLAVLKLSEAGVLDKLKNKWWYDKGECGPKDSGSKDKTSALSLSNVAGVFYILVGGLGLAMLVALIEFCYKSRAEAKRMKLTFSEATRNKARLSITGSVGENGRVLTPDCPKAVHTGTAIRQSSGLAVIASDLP
# Description: Radioligand binding. HEK293-T/17 cells were transfected with 5 μg of iGluR cDNA in 100 mm^2 culture dishes. Two days post transfection, the plates were washed twice with ice-cold Dulbecco's phosphate-buffered saline (DPBS) and then incubated with 50 mM Tris (pH 7.4) and 1 mM EDTA for three minutes on ice. Cells were collected and centrifuged for five minutes at 800 g at room temperature. The cell pellet was homogenized in 50 mM Tris (pH 7.4) containing 320 mM sucrose (homogenization buffer, HB) on ice using a glass dounce homogenizer and centrifuged at 4° C. for 10 minutes at 800 g. The supernatant, containing the membrane fragments, was saved and the remaining pellet containing nuclei and unbroken cells was resuspended in HB. This homogenization process was repeated two more times and after collection of the final resulting supernatant, the remaining pellet was discarded. The collected supernatants were centrifuged at 4° C. for 20 minutes at 20000 g and the resulting supernatant was discarded leaving a membrane-containing pellet. The pellets were resuspended in freshly prepared binding buffer containing (in mM) 50 Tris (pH 7.2), 2.5 CaCl2, 10% glycerol and 100 KSCN (for AMPA receptors) or exclusively 50 Tris (pH 7.4) (for kainate receptors). Membrane protein (50-100 μg) was combined with radiolabeled ligand (10 nM [^3H]-KA or 20 nM [^3H]-AMPA for kainate receptor and AMPA receptor binding, respectively), alone or with 100 μM of IKM-159, and then incubated for 1 h at 4° C. Non-specific binding was determined as the amount of radioligand bound in the presence of a saturating concentration of glutamate (1 mM). Total binding was determined as the amount of radioligand bound in the absence of any competing ligands minus the non-specific binding. […] Data were presented as a percentage of the total binding. All experimental conditions were performed in duplicate in each assay and then averaged for each trial.
smiles,measurement,setting,value
O=C(O)C[C@@]12O[C@H]3C=CCN[C@H]3C1CN[C@H]2C(=O)O (stereo partly drawn) [IKM-159],GluA1 peak amplitude as percent of basal (glutamate alone) peak,[1],92±3%
same,GluK2a peak amplitude as percent of basal peak glutamate current,[2],93±2%
same,GluK1-2b peak amplitude as percent of basal peak glutamate current,[3],90±10%
same,[3H]AMPA bound as percent of total (specific) binding in absence of competing ligand,GluA2,107±5%
same,[3H]AMPA bound as percent of total (specific) binding in absence of competing ligand,GluA1,135±23% and 134±23%
same,activity at 100 µM,GluK2a,98 ± 4%
same,[3H]AMPA bound as percent of total (specific) binding in absence of competing ligand,"GluA4; 20 nM [3H]-AMPA, 1 h at 4° C.",90±6%
same,bound radioligand ([3H]-AMPA),GluA4; 1 h pre-incubation prior to addition of the radioligand,100%
same,bound radioligand ([3H]-AMPA),GluA4; 2 h incubation with [3H]-AMPA,113%
